Assay results taken from US8129371B2, “Thienopyrimidine and pyrazolopyrimidine compounds and their use as mTOR kinase and PI3 kinase inhibitors” (Wyeth LLC, priority 2007, dated 2012).

Key:
Human mTOR (FLAG-TOR) = molecular target: T1, Human mTOR (FLAG-TOR) (Homo sapiens, UniProt P42345); assay: Human mTOR kinase assay with purified enzyme, DELFIA format; format: biochemical
T1 construct: FLAG
In short: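 Purified FLAG-mTOR in HEPES pH 7.4 buffer with 10 mM MnCl2 was preincubated with inhibitor and reacted 2 h at room temperature with His6-S6K substrate, then stopped with EDTA/EGTA. Phospho-T389 S6K detected by DELFIA with Eu-labelled antibody (40 ng/mL) after plate capture; inhibition computed from signal.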

PI3K [1] = molecular target: T2, PI3K (Homo sapiens, UniProt P42336); assay: Fluorescence polarization assay for PI3K; format: biochemical; settings: PI3 Kinase α; read-out: PI3 Kinase α IC50
T2 construct: PI3 Kinase α IC50; other: PI3 Kinase α; other: PI3 Kinase α isoform, fluorescence polarization
T2 sequence (P42336 whole entry, canonical isoform): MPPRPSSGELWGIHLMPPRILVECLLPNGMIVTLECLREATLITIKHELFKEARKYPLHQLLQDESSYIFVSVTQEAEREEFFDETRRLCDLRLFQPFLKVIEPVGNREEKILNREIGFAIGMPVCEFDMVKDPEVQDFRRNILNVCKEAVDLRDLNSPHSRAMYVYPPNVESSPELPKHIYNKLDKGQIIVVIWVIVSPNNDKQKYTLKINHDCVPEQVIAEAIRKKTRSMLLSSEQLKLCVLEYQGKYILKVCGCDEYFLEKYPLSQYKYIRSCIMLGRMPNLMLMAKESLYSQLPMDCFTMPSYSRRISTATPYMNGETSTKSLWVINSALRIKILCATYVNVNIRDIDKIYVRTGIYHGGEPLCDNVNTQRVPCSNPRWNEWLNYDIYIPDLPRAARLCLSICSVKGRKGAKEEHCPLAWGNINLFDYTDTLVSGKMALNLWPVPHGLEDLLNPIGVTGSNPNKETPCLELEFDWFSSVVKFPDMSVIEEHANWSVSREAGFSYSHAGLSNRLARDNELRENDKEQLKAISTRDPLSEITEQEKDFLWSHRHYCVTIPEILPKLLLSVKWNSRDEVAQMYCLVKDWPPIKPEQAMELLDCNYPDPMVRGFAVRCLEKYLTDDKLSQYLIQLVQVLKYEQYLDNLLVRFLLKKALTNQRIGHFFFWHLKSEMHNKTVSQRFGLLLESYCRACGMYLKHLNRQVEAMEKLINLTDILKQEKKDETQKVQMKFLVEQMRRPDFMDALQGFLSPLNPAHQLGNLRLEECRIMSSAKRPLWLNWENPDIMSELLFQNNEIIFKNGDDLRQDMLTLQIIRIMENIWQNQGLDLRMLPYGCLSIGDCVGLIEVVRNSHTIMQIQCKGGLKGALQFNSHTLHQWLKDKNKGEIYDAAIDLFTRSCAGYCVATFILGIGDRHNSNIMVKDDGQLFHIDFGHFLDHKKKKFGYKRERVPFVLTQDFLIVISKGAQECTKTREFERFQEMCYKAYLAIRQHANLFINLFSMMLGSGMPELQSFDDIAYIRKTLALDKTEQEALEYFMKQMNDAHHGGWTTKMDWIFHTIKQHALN
In short: (§1)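 PI3K was preincubated with compound (final DMSO 1%), and the reaction was started with PIP2/ATP substrate and run 30–60 min. It was stopped with a detector mix giving 10 nM red probe and 70 nM GST-GRP.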

PI3K [2] = molecular target: T3, PI3K (Homo sapiens, UniProt P48736); assay: Fluorescence polarization assay for PI3K; format: biochemical; settings: PI3 Kinase γ; read-out: PI3 Kinase γ IC50
T3 construct: PI3 Kinase γ IC50; other: PI3 Kinase γ; other: PI3 Kinase γ isoform, fluorescence polarization
T3 sequence (P48736 whole entry, canonical isoform): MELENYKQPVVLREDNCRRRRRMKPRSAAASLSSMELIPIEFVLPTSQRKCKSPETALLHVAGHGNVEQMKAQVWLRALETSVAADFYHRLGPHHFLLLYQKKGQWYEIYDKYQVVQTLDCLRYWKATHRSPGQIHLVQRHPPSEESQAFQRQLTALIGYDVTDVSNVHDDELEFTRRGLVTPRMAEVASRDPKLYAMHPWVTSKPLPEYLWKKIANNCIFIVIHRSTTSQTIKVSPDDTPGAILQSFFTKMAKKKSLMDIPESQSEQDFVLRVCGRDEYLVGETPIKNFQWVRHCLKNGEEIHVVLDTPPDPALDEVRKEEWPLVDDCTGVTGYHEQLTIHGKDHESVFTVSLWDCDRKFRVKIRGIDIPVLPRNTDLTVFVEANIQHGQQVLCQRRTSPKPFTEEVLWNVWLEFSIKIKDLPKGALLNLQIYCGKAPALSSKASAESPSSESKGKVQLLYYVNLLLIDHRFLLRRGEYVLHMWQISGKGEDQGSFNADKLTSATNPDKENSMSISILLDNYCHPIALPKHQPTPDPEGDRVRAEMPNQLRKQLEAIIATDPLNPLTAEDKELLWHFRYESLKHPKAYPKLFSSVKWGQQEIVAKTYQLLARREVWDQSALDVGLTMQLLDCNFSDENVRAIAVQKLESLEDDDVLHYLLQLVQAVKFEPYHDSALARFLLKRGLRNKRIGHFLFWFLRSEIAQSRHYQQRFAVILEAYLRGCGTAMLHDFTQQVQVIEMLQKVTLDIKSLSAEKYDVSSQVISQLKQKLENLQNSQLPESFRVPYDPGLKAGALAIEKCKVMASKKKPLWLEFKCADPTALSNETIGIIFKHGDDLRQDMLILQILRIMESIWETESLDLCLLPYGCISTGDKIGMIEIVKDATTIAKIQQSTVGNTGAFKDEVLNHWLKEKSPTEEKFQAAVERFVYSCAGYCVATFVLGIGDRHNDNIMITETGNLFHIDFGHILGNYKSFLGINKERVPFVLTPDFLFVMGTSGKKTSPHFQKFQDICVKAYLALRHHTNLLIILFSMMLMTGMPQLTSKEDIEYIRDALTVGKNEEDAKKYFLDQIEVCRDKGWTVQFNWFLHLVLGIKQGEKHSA
In short: as §1

prostate line LNCap = assay: In vitro cell culture growth assay (MTS), LNCap; format: cell-based; settings: Homo sapiens, LNCaP, 72 h, LNCap cells, three days after drug treatment
In short: (§2)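 Plate cells; add inhibitors on day 1; after 3 days' treatment, add MTS; read A490; express as percent growth of vehicle-treated control.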

breast line MDA468 = assay: In vitro cell culture growth assay (MTS), MDA468; format: cell-based; settings: Homo sapiens, 72 h, MDA468 cells, three days after drug treatment
In short: as §2

Row | Compound | IC50 (Human mTOR (FLAG-TOR)) | IC50 (PI3K [1]) | IC50 (PI3K [2]) | IC50 (prostate line LNCap) | IC50 (breast line MDA468)
1 | CCn1ncc2c(N3CC4CCC(C3)O4)nc(-c3ccc(NC(=O)Nc4ccc(CCO)cc4)cc3)nc21 [Example 183, 1-{4-[1-ethyl-4-(8-oxa-3-azabicyclo[3.2.1]oct-3-yl)-1H-pyrazolo[3,4-d]pyrimidin-6-yl]phenyl}-3-[4-(2-hydroxyethyl)phenyl]urea] | 0.12 nM | 68 nM | 1500 nM | < 1 nM | < 1 nM
2 | CCn1ncc2c(N3CC4CCC(C3)O4)nc(-c3ccc(NC(=O)Nc4ccc(N5CCN(C)CC5)nc4)cc3)nc21 [Example 185, 1-{4-[1-ethyl-4-(8-oxa-3-azabicyclo[3.2.1]oct-3-yl)-1H-pyrazolo[3,4-d]pyrimidin-6-yl]phenyl}-3-[6-(4-methylpiperazin-1-yl)pyridin-3-yl]urea] | 0.735 nM | 196 nM | 2270 nM | < 1 nM | 1 nM
3 | CCn1ncc2c(N3CC4CCC(C3)O4)nc(-c3ccc(NC(=O)Nc4ccc(OC)cc4)cc3)nc21 [Example 187, 1-{4-[1-ethyl-4-(8-oxa-3-azabicyclo[3.2.1]oct-3-yl)-1H-pyrazolo[3,4-d]pyrimidin-6-yl]phenyl}-3-(4-methoxyphenyl)urea] | 0.405 nM | 199 nM | 3800 nM | 1 nM | 19 nM
4 | CCn1ncc2c(N3CC4CCC(C3)O4)nc(-c3ccc(NC(=O)Nc4ccc(C#N)cc4)cc3)nc21 [Example 190, 1-(4-cyanophenyl)-3-{4-[1-ethyl-4-(8-oxa-3-azabicyclo[3.2.1]oct-3-yl)-1H-pyrazolo[3,4-d]pyrimidin-6-yl]phenyl}urea] | 0.505 nM | 542 nM | 3050 nM | 4 nM | 33 nM
5 | COC(=O)Nc1ccc(-c2nc(N3CC4CCC(C3)O4)c3cnn(CCO)c3n2)cc1 [Example 192, methyl {4-[1-(2-hydroxyethyl)-4-(8-oxa-3-azabicyclo[3.2.1]oct-3-yl)-1H-pyrazolo[3,4-d]pyrimidin-6-yl]phenyl}carbamate] | 26 nM | 2100 nM | > 10000 nM | 1020 nM | 5000 nM
6 | CCNC(=O)Nc1ccc(-c2nc(N3CC4CCC(C3)O4)c3cnn(CCO)c3n2)cc1 [Example 194, 1-ethyl-3-{4-[1-(2-hydroxyethyl)-4-(8-oxa-3-azabicyclo[3.2.1]oct-3-yl)-1H-pyrazolo[3,4-d]pyrimidin-6-yl]phenyl}urea] | 2.7 nM | 1500 nM | > 10000 nM | 280 nM | 800 nM
7 | O=C(Nc1ccc(-c2nc(N3CC4CCC(C3)O4)c3cnn(CCO)c3n2)cc1)OCCO [Example 195, 2-hydroxyethyl {4-[1-(2-hydroxyethyl)-4-(8-oxa-3-azabicyclo[3.2.1]oct-3-yl)-1H-pyrazolo[3,4-d]pyrimidin-6-yl]phenyl}carbamate] | 4.9 nM | 1880 nM | > 10000 nM | 640 nM | 1500 nM
8 | O=C(NCCO)Nc1ccc(-c2nc(N3CC4CCC(C3)O4)c3cnn(CCO)c3n2)cc1 [Example 196, 1-(2-hydroxyethyl)-3-{4-[1-(2-hydroxyethyl)-4-(8-oxa-3-azabicyclo[3.2.1]oct-3-yl)-1H-pyrazolo[3,4-d]pyrimidin-6-yl]phenyl}urea] | 2.2 nM | 607 nM | 7330 nM | 10000 nM | 13000 nM
9 | O=C(Nc1ccncc1)Nc1ccc(-c2nc(N3CC4CCC(C3)O4)c3cnn(CCO)c3n2)cc1 [Example 200, 1-{4-[1-(2-hydroxyethyl)-4-(8-oxa-3-azabicyclo[3.2.1]oct-3-yl)-1H-pyrazolo[3,4-d]pyrimidin-6-yl]phenyl}-3-pyridin-4-ylurea] | 0.39 nM | 92 nM | 2200 nM | 50 nM | 50 nM

The remaining molecules from weak to strong by IC50 (Human mTOR (FLAG-TOR)), led by results:

Row | IC50 (Human mTOR (FLAG-TOR)) | IC50 (PI3K [1]) | IC50 (PI3K [2]) | IC50 (prostate line LNCap) | Compound | IC50 (breast line MDA468)
10 | 3.55 nM | 6640 nM | > 10000 nM | 210 nM | CCn1ncc2c(N3CC4CCC(C3)O4)nc(-c3ccc(NC(=O)OCC(C)O)cc3)nc21 (stereo not drawn) [Example 191, 2-hydroxypropyl {4-[1-ethyl-4-(8-oxa-3-azabicyclo[3.2.1]oct-3-yl)-1H-pyrazolo[3,4-d]pyrimidin-6-yl]phenyl}carbamate] | 780 nM
11 | 2.85 nM | 375 nM | > 10000 nM | 650 nM | CNC(=O)Nc1ccc(-c2nc(N3CC4CCC(C3)O4)c3cnn(CCO)c3n2)cc1 [Example 193, 1-{4-[1-(2-hydroxyethyl)-4-(8-oxa-3-azabicyclo[3.2.1]oct-3-yl)-1H-pyrazolo[3,4-d]pyrimidin-6-yl]phenyl}-3-methylurea] | 980 nM
12 | 2.85 nM | 1340 nM | 12000 nM | 400 nM | O=C(Nc1ccc(-c2nc(N3CC4CCC(C3)O4)c3cnn(CCO)c3n2)cc1)NC1CC1 [Example 197, 1-cyclopropyl-3-{4-[1-(2-hydroxyethyl)-4-(8-oxa-3-azabicyclo[3.2.1]oct-3-yl)-1H-pyrazolo[3,4-d]pyrimidin-6-yl]phenyl}urea] | 1400 nM
13 | 1.1 nM | 464 nM | 2980 nM | 10 nM | CCn1ncc2c(N3CC4CCC(C3)O4)nc(-c3ccc(NC(=O)Nc4ccc(Cl)cc4)cc3)nc21 [Example 188, 1-(4-chlorophenyl)-3-{4-[1-ethyl-4-(8-oxa-3-azabicyclo[3.2.1]oct-3-yl)-1H-pyrazolo[3,4-d]pyrimidin-6-yl]phenyl}urea] | 190 nM
14 | 0.885 nM | 849 nM | 11000 nM | 5 nM | CCn1ncc2c(N3CC4CCC(C3)O4)nc(-c3ccc(NC(=O)Nc4ccc(C)cc4)cc3)nc21 [Example 189, 1-{4-[1-ethyl-4-(8-oxa-3-azabicyclo[3.2.1]oct-3-yl)-1H-pyrazolo[3,4-d]pyrimidin-6-yl]phenyl}-3-(4-methylphenyl)urea] | 20 nM
15 | 0.835 nM | 136 nM | 1780 nM | < 1 nM | CCn1ncc2c(N3CC4CCC(C3)O4)nc(-c3ccc(NC(=O)Nc4ccc(OCCN(C)C)cc4)cc3)nc21 [Example 186, 1-{4-[2-(dimethylamino)ethoxy]phenyl}-3-{4-[1-ethyl-4-(8-oxa-3-azabicyclo[3.2.1]oct-3-yl)-1H-pyrazolo[3,4-d]pyrimidin-6-yl]phenyl}urea] | 8 nM
16 | 0.685 nM | 68 nM | 1930 nM | 28 nM | O=C(Nc1ccccc1)Nc1ccc(-c2nc(N3CC4CCC(C3)O4)c3cnn(CCO)c3n2)cc1 [Example 198, 1-{4-[1-(2-hydroxyethyl)-4-(8-oxa-3-azabicyclo[3.2.1]oct-3-yl)-1H-pyrazolo[3,4-d]pyrimidin-6-yl]phenyl}-3-phenylurea] | 190 nM
17 | 0.46 nM | 174 nM | 3990 nM | 90 nM | O=C(Nc1ccc(-c2nc(N3CC4CCC(C3)O4)c3cnn(CCO)c3n2)cc1)Nc1cccnc1 [Example 199, 1-{4-[1-(2-hydroxyethyl)-4-(8-oxa-3-azabicyclo[3.2.1]oct-3-yl)-1H-pyrazolo[3,4-d]pyrimidin-6-yl]phenyl}-3-pyridin-3-ylurea] | 110 nM
18 | 0.295 nM | 2150 nM | 7760 nM | 1 nM | CCn1ncc2c(N3CC4CCC(C3)O4)nc(-c3ccc(NC(=O)Nc4ccc(N5CCOCC5)nc4)cc3)nc21 [Example 184, 1-{4-[1-ethyl-4-(8-oxa-3-azabicyclo[3.2.1]oct-3-yl)-1H-pyrazolo[3,4-d]pyrimidin-6-yl]phenyl}-3-(6-morpholin-4-ylpyridin-3-yl)urea] | 8 nM
19 | 0.265 nM | 50 nM | 1760 nM | 13 nM | O=C(Nc1ccc(CO)cc1)Nc1ccc(-c2nc(N3CC4CCC(C3)O4)c3cnn(CCO)c3n2)cc1 [Example 201, 1-{4-[1-(2-hydroxyethyl)-4-(8-oxa-3-azabicyclo[3.2.1]oct-3-yl)-1H-pyrazolo[3,4-d]pyrimidin-6-yl]phenyl}-3-[4-(hydroxymethyl)phenyl]urea] | 12 nM
20 | 0.215 nM | 44 nM | 2160 nM | 1 nM | O=C(Nc1ccc(CCO)cc1)Nc1ccc(-c2nc(N3CC4CCC(C3)O4)c3cnn(CCO)c3n2)cc1 [Example 202, 1-{4-[1-(2-hydroxyethyl)-4-(8-oxa-3-azabicyclo[3.2.1]oct-3-yl)-1H-pyrazolo[3,4-d]pyrimidin-6-yl]phenyl}-3-[4-(2-hydroxyethyl)phenyl]urea] | 4 nM
21 | 0.12 nM | 40 nM | 1270 nM | < 1 nM | CCn1ncc2c(N3CC4CCC(C3)O4)nc(-c3ccc(NC(=O)Nc4ccc(CO)cc4)cc3)nc21 [Example 182, 1-{4-[1-ethyl-4-(8-oxa-3-azabicyclo[3.2.1]oct-3-yl)-1H-pyrazolo[3,4-d]pyrimidin-6-yl]phenyl}-3-[4-(hydroxymethyl)phenyl]urea] | < 1 nM
